Measured values published in article PMC10447463, “Data-mining unveils structure–property–activity correlation of viral infectivity enhancing self-assembling peptides” (Nature Communications, 2023).

How the values were obtained:
[1] = test system: HIV-1 infection of TZM-bl cells; assay: HIV-1 infectivity enhancement assay, β-galactosidase luminescence; type: cell-based
[2] = Turbidity, derived count rate of scattered light; type: physicochemical; conditions: for Count Rate / kcps: derived count rate of scattered light at 633 nm, 173°, from zeta-potential measurement, 0.1 mg/mL in 1 mM KCl after 1 d at 1 mg/mL in PBS, turbidity / microscopic aggregation, mean of triplicate; for Log Count Rate: log of derived count rate; for Count Rate: turbidity
In short: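 Samples: 1 mg/mL in PBS pH 7.4 (from DMSO), 1 d at RT, then diluted in 1 mM KCl immediately before measurement. Triplicates, two independent runs averaged.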

[3] = infectivity class (low / medium / high) of each library peptide; main list in c1-c6, same classes repeated in sub-lists of sequences containing the hydrophobicity/charge patterns P+,H0,P+,H0,P0,H0,P0; P+,H0,P0,H0,P0,H0,P0; P+,H0,P0,H0
[4] = infectivity enhancement relative to EF-C (=1); Feb2021 run
[5] = infectivity n-fold relative to virus only; Feb2021 run
[6] = log10 of HIV-1 infection of TZM-bl cells relative to EF-C; Fig S15 source data; asymmetric std dev errors
[7] = log10 of infectivity relative to EF-C; Feb2021 run
[8] = derived count rate from zeta measurement, mean
[9] = HIV-1 infection relative to EF-C; Fig 23 plot, panels A and B; mean of 3 values
[10] = HIV-1 infection relative to EF-C; Fig 23 plot, single data point, replicate 1
[11] = HIV-1 infection relative to EF-C; Fig 23 plot, single data point, replicate 2
[12] = HIV-1 infection relative to EF-C; Fig 23 plot, single data point, replicate 3
[13] = log10 of infection relative to EF-C, Figure 6C
[14] = n-fold infection vs virus only, relative to that of EF-C, 1.3 µM peptide
[15] = log10 of derived count rate of scattered light, Figure 6C
[16] = logarithm of count rate in kcps
[17] = infectivity class (low / medium / high) of the peptide in the sequence-pattern analysis, Fig. S22-A4; class limits not given
[18] = log10 of infection relative to EF-C, Figure 7B
[19] = Feb2021; figures match the 1.3 µM column
[20] = Feb2021; infectivity relative to virus only
[21] = Feb2021; log10 of infectivity relative to EF-C
[22] = Feb2021; n-fold infectivity relative to EF-C
[23] = derived count rate of scattered light
[24] = Fig S8 panels B, D; infectivity enhancement relative to EF-C
[25] = Fig S8 panels B, D; infectivity n-fold relative to virus alone
[26] = Fig S8 panels A, C, asymmetric log errors
[27] = Fig S8 panels B, D, derived count rate of scattered light

CEFEFQF [KB12]
infectivity [1, 3]: low
Rel-to EFC (Feb-2021) [1, 4]: 0.003272
n-fold to virus (Feb2021) [1, 5]: 0.1375
Log10 Inf. rel. to EF-C [1, 6]: -2.283
Log10 of Rel to EFC (Feb2021) [1, 7]: -2.485
Zeta Count Rate / kcps [2, 8]: 405.4 kcps
Zeta Count Rate Category ([2]; key not given): 1

CKFKFPF
Inf. rel. EF-C [1, 9]: 0.02481
Inf. rel. EF-C [1, 10]: 0.05139
Inf. rel. EF-C [1, 11]: 0.01572
Inf. rel. EF-C [1, 12]: 0.007313
Log10 Infection Rel EF-C [1, 13]: -1.6054
Inf. rel. EF-C [1, 14]: 0.02
Count Rate / kcps [2]: 143.4 kcps
Log10 Count Rate [2, 15]: 2.156
Log10 Count Rate [2, 16]: 2.156

CKIKIQIII [AR0 / F19]
n-fold to virus (Feb2021) ([1]; Feb2021 run; infectivity n-fold relative to virus alone): 41.02
Log10 of Rel to EFC (Feb2021) ([1]; Feb2021 run; log10 of infectivity relative to EF-C): -0.01045
Rel-to EFC (Feb-2021) ([1]; Feb2021 run; n-fold infectivity relative to EF-C): 0.9762
infectivity [1, 3]: high
infectivity [1, 17]: high
Log10 Inf. rel. to EF-C [1, 6]: -0.01045
Zeta Count Rate / kcps ([2]; derived count rate of scattered light, mean, std deviation in separate column): 4953 kcps

CKIKIQIRGD [psis21]
infectivity [1, 3]: medium
Log10 Inf. rel. to EF-C [1, 6]: -0.4842

CKIKIWIW
Log10 Infection Rel EF-C [1, 13]: -0.06382
Inf. rel. EF-C [1, 14]: 0.86
Count Rate / kcps [2]: 3321 kcps
Log10 Count Rate [2, 15]: 3.521
Log10 Count Rate [2, 16]: 3.521

CKIWIQIY
Log10 Infection Rel EF-C [1, 13]: -0.2415
Inf. rel. EF-C [1, 14]: 0.57
Count Rate / kcps [2]: 1842.4 kcps
Log10 Count Rate [2, 15]: 3.265
Log10 Count Rate [2, 16]: 3.265

CRFRFHFH
Log10 Infection Rel EF-C [1, 13]: -0.2767
Inf. rel. EF-C [1, 14]: 0.53
Count Rate / kcps [2]: 430.2 kcps
Log10 Count Rate [2, 15]: 2.634
Log10 Count Rate [2, 16]: 2.634

CRLRVGVS
Inf. rel. EF-C [1, 9]: 0.04346
Inf. rel. EF-C [1, 10]: 0.06547
Inf. rel. EF-C [1, 11]: 0.03045
Inf. rel. EF-C [1, 12]: 0.03448
Log10 Infection Rel EF-C [1, 13]: -1.362
Inf. rel. EF-C [1, 14]: 0.04
Count Rate / kcps [2]: 35.07 kcps
Log10 Count Rate [2, 15]: 1.545
Log10 Count Rate [2, 16]: 1.545

CRLSLSLS
Inf. rel. EF-C [1, 9]: 0.3134
Inf. rel. EF-C [1, 11]: 0.2799
Inf. rel. EF-C [1, 12]: 0.2877
Log10 Infection Rel EF-C [1, 13]: -0.5039
Inf. rel. EF-C [1, 14]: 0.31
Count Rate / kcps [2]: 1697 kcps
Log10 Count Rate [2, 15]: 3.23
Log10 Count Rate [2, 16]: 3.23

EIEIQINM [TM95 / (TM75)]
infectivity [1, 17]: low
Rel-to EFC (Feb-2021) [1, 4]: 0.03629
n-fold to virus (Feb2021) [1, 5]: 1.525
Log10 Inf. rel. to EF-C [1, 6]: -1.44
Log10 of Rel to EFC (Feb2021) [1, 7]: -1.44
Zeta Count Rate / kcps [2, 8]: 134 kcps
Zeta Count Rate Category ([2]; key not given): 1

EIEIQINMWQ [VH8]
infectivity [1, 3]: medium
Rel-to EFC (Feb-2021) [1, 4]: 0.1315
n-fold to virus (Feb2021) [1, 5]: 5.526
Log10 Inf. rel. to EF-C [1, 6]: -0.881
Log10 of Rel to EFC (Feb2021) [1, 7]: -0.881
Zeta Count Rate / kcps [2, 8]: 1264 kcps
Zeta Count Rate Category ([2]; key not given): 1

GYVIIK [reference compound]
infectivity enhancement, in words ([1]; fibril-forming peptides with positive zeta-potential, low count rate): do not enhance infectivity
Log10 Infection Rel EF-C [1, 18]: -0.99
Inf. rel. EF-C [1, 14]: 0.10
Count Rate / kcps [2]: 30 kcps

HHHHKAKAKAKAWWWW [TM8]
Absolute Infectivity / RLU /s (Feb2021) [1, 19]: 3233 RLU /s
n-fold to virus (Feb2021) [1, 20]: 3.76
Log10 of Rel to EFC (Feb2021) [1, 21]: -1.048
Rel-to EFC (Feb-2021) [1, 22]: 0.08948
infectivity [1, 17]: low
Log10 Inf. rel. to EF-C [1, 6]: -1.048
Zeta Count Rate Category ([2]; category 1 / 0, no key given): 1
Zeta Count Rate / kcps [2, 23]: 658.9 kcps

HHHHKAKAKAKAYYYY [TM10]
Absolute Infectivity / RLU /s (Feb2021) [1, 19]: 203.3 RLU /s
n-fold to virus (Feb2021) [1, 20]: 0.5495
Log10 of Rel to EFC (Feb2021) [1, 21]: -1.883
Rel-to EFC (Feb-2021) [1, 22]: 0.01308
infectivity [1, 17]: low
Log10 Inf. rel. to EF-C [1, 6]: -1.883
Zeta Count Rate Category ([2]; category 1 / 0, no key given): 1
Zeta Count Rate / kcps [2, 23]: 240.9 kcps

HHHHKIKIQINMYYYY [TM16]
Absolute Infectivity / RLU /s (Feb2021) [1, 19]: 22408.88889 RLU /s
n-fold to virus (Feb2021) [1, 20]: 46.56
Log10 of Rel to EFC (Feb2021) [1, 21]: 0.04454
Rel-to EFC (Feb-2021) [1, 22]: 1.108
Rel-to EFC [1, 24]: 1.108
n-fold to virus [1, 25]: 46.56
infectivity [1, 3]: high
infectivity [1, 17]: high
Log10 Inf. rel. to EF-C [1, 6]: 0.04454
Log Count Rate [2, 26]: 3.753
Log Count Rate ([2]; Fig S8 panels B, D): 3.753
Count Rate [2, 27]: 5658.77
Zeta Count Rate Category ([2]; category 1 / 0, no key given): 1
Zeta Count Rate / kcps [2, 23]: 5659 kcps

HIHIQIC [CN12]
Absolute Infectivity / RLU /s (Feb2021) [1, 19]: 4621 RLU /s
n-fold to virus (Feb2021) [1, 20]: 11.38
Log10 of Rel to EFC (Feb2021) [1, 21]: -0.5672
Rel-to EFC (Feb-2021) [1, 22]: 0.2709
Rel-to EFC [1, 24]: 0.2709
n-fold to virus [1, 25]: 11.38
infectivity [1, 3]: medium
Log10 Inf. rel. to EF-C [1, 6]: -0.5672
Log Count Rate [2, 26]: 2.416
Log Count Rate ([2]; Fig S8 panels B, D): 2.416
Count Rate [2, 27]: 260.57
Zeta Count Rate Category ([2]; category 1 / 0, no key given): 1
Zeta Count Rate / kcps [2, 23]: 260.6 kcps

HLHLPLL [CN14]
Absolute Infectivity / RLU /s (Feb2021) [1, 19]: 133.3 RLU /s
n-fold to virus (Feb2021) [1, 20]: 0.4211
Log10 of Rel to EFC (Feb2021) [1, 21]: -1.999
Rel-to EFC (Feb-2021) [1, 22]: 0.01002
infectivity [1, 3]: low
Log10 Inf. rel. to EF-C [1, 6]: -1.9991
Zeta Count Rate Category ([2]; category 1 / 0, no key given): 1
Zeta Count Rate / kcps [2, 23]: 200 kcps

IFQINS [reference compound]
Log10 Infection Rel EF-C [1, 18]: -1.21
Inf. rel. EF-C [1, 14]: 0.06
Count Rate / kcps [2]: 36 kcps
